{"source": "ChEMBL document CHEMBL1143404", "about": "“New plasmid-mediated fluoroquinolone efflux pump, QepA, found in an Escherichia coli clinical isolate” (2007)", "key": {"Escherichia coli [1]": {"test_system": "Escherichia coli", "assay": "Antimicrobial activity against Escherichia coli KAM32 pHPA containing mutated GyrA gene by agar dilution method", "format": "functional"}, "Escherichia coli [2]": {"test_system": "Escherichia coli", "assay": "Antimicrobial activity against multidrug-resistant Escherichia coli C316 pHPA containing mutated GyrA gene by agar dilution method", "format": "functional"}, "Escherichia coli [3]": {"test_system": "Escherichia coli", "assay": "Antimicrobial activity against Escherichia coli KAM32 pSTVqepA containing qepA gene ligated to pSTV28 plasmid by agar dilution method", "format": "functional"}, "[4]": {"molecular_target": "T1, Plasmid efflux fluoroquinolone (Escherichia coli) (UniProt A5H8A5)", "T1 sequence (whole entry)": "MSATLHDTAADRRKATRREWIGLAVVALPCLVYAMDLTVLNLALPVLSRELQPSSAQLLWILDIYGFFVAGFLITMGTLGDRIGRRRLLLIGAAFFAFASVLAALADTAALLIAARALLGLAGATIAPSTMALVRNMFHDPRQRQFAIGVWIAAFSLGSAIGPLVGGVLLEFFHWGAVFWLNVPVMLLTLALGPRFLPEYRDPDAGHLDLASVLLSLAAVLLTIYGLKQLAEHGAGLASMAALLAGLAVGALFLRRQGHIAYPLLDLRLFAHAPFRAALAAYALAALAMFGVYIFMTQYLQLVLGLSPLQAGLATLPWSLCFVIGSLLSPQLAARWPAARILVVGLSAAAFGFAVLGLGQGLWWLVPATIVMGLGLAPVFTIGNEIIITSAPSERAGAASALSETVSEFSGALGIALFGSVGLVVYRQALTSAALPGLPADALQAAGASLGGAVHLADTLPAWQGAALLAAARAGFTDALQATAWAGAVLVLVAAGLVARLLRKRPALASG", "assay": "Inhibition of qepA-mediated drug efflux in Escherichia coli KAM32 assessed as increase in accumulation of Norfloxacin by fluorescence spectroscopy"}, "Escherichia coli [5]": {"test_system": "Escherichia coli", "assay": "Antimicrobial activity against Escherichia coli KAM32 pSTV28 containing chloramphenicol-resistant vector by agar dilution method", "format": "functional"}, "Escherichia coli [6]": {"test_system": "Escherichia coli", "assay": "Antimicrobial activity against Escherichia coli KAM32 pSTVdeltaqepA containing disrupted qepA gene by agar dilution method", "format": "functional"}, "Escherichia coli [7]": {"test_system": "Escherichia coli", "assay": "Antimicrobial activity against Escherichia coli KAM32 expressing deltaacrB ydhE hsd gene by agar dilution method", "format": "functional"}, "Escherichia coli [8]": {"test_system": "Escherichia coli", "assay": "Ratio of MIC for Escherichia coli KAM32 pSTVqepA mutant to MIC for Escherichia coli KAM32 pSTV28 mutant", "format": "functional"}}, "note": "The source made the active and inactive calls. The rule behind the calls is not given here.", "data": [{"smiles": "CC1(C)S[C@@H]2[C@H](NC(=O)[C@H](N)c3ccccc3)C(=O)N2[C@H]1C(=O)O", "note": "[AMPICILLIN]", "values": [{"measurement": "MIC", "setting": "Escherichia coli [1]", "value": "> 128", "unit": "µg/mL"}, {"measurement": "MIC", "setting": "Escherichia coli [2]", "value": "> 128", "unit": "µg/mL"}]}, {"smiles": "N#CC(C#N)=NNc1cccc(Cl)c1", "note": "[CARBONYL CYANIDE M-CHLOROPHENYLHYDRAZONE]", "values": [{"measurement": "MIC", "setting": "Escherichia coli [3]", "value": 16, "unit": "µg/mL"}, {"measurement": "MIC", "setting": "Escherichia coli [1]", "value": 16, "unit": "µg/mL"}, {"measurement": "Activity", "setting": "[4]", "value": "Active"}, {"measurement": "MIC", "setting": "Escherichia coli [5]", "value": 16, "unit": "µg/mL"}, {"measurement": "MIC", "setting": "Escherichia coli [6]", "value": 16, "unit": "µg/mL"}, {"measurement": "MIC", "setting": "Escherichia coli [7]", "value": 16, "unit": "µg/mL"}, {"measurement": "Ratio", "setting": "Escherichia coli [8]", "value": 1}, {"measurement": "MIC", "setting": "Escherichia coli [2]", "value": 16, "unit": "µg/mL"}]}, {"smiles": "O=C(O)c1cn(C2CC2)c2cc(N3CCNCC3)c(F)cc2c1=O", "note": "[CIPROFLOXACIN]", "values": [{"measurement": "MIC", "setting": "Escherichia coli [1]", "value": 0.064, "unit": "µg/mL"}, {"measurement": "MIC", "setting": "Escherichia coli [2]", "value": "> 128", "unit": "µg/mL"}]}, {"smiles": "C[C@H](CCC(=O)O)[C@H]1CC[C@H]2[C@@H]3CC[C@@H]4C[C@H](O)CC[C@]4(C)[C@H]3C[C@H](O)[C@]12C", "note": "[DEOXYCHOLIC ACID]", "values": [{"measurement": "MIC", "setting": "Escherichia coli [3]", "value": 512, "unit": "µg/mL"}, {"measurement": "MIC", "setting": "Escherichia coli [1]", "value": 512, "unit": "µg/mL"}, {"measurement": "MIC", "setting": "Escherichia coli [5]", "value": 512, "unit": "µg/mL"}, {"measurement": "MIC", "setting": "Escherichia coli [6]", "value": 512, "unit": "µg/mL"}, {"measurement": "MIC", "setting": "Escherichia coli [7]", "value": 1020, "unit": "µg/mL"}, {"measurement": "Ratio", "setting": "Escherichia coli [8]", "value": 1}, {"measurement": "MIC", "setting": "Escherichia coli [2]", "value": "> 1020", "unit": "µg/mL"}]}, {"smiles": "CCN1CCN(c2cc3c(cc2F)c(=O)c(C(=O)O)cn3C2CC2)CC1", "note": "[ENROFLOXACIN]", "values": [{"measurement": "MIC", "setting": "Escherichia coli [3]", "value": 0.25, "unit": "µg/mL"}, {"measurement": "MIC", "setting": "Escherichia coli [1]", "value": 0.25, "unit": "µg/mL"}, {"measurement": "MIC", "setting": "Escherichia coli [5]", "value": 0.008, "unit": "µg/mL"}, {"measurement": "MIC", "setting": "Escherichia coli [6]", "value": 0.008, "unit": "µg/mL"}, {"measurement": "MIC", "setting": "Escherichia coli [7]", "value": 0.008, "unit": "µg/mL"}, {"measurement": "Ratio", "setting": "Escherichia coli [8]", "value": 32}, {"measurement": "MIC", "setting": "Escherichia coli [2]", "value": "> 128", "unit": "µg/mL"}]}, {"smiles": "CC[C@H]1OC(=O)[C@H](C)[C@@H](O[C@H]2C[C@@](C)(OC)[C@@H](O)[C@H](C)O2)[C@H](C)[C@@H](O[C@@H]2O[C@H](C)C[C@H](N(C)C)[C@H]2O)[C@](C)(O)C[C@@H](C)C(=O)[C@H](C)[C@@H](O)[C@]1(C)O", "note": "[ERYTHROMYCIN]", "values": [{"measurement": "MIC", "setting": "Escherichia coli [3]", "value": 2, "unit": "µg/mL"}, {"measurement": "MIC", "setting": "Escherichia coli [1]", "value": "> 128", "unit": "µg/mL"}, {"measurement": "MIC", "setting": "Escherichia coli [5]", "value": 1, "unit": "µg/mL"}, {"measurement": "MIC", "setting": "Escherichia coli [6]", "value": 1, "unit": "µg/mL"}, {"measurement": "MIC", "setting": "Escherichia coli [7]", "value": 2, "unit": "µg/mL"}, {"measurement": "Ratio", "setting": "Escherichia coli [8]", "value": 2}, {"measurement": "MIC", "setting": "Escherichia coli [2]", "value": "> 128", "unit": "µg/mL"}]}, {"smiles": "C[n+]1c2cc(N)ccc2cc2ccc(N)cc21.[Cl-]", "note": "[EUFLAVINE]", "values": [{"measurement": "MIC", "setting": "Escherichia coli [3]", "value": 4, "unit": "µg/mL"}, {"measurement": "MIC", "setting": "Escherichia coli [1]", "value": 4, "unit": "µg/mL"}, {"measurement": "MIC", "setting": "Escherichia coli [5]", "value": 2, "unit": "µg/mL"}, {"measurement": "MIC", "setting": "Escherichia coli [6]", "value": 2, "unit": "µg/mL"}, {"measurement": "MIC", "setting": "Escherichia coli [7]", "value": 2, "unit": "µg/mL"}, {"measurement": "Ratio", "setting": "Escherichia coli [8]", "value": 2}, {"measurement": "MIC", "setting": "Escherichia coli [2]", "value": "> 128", "unit": "µg/mL"}]}, {"smiles": "COc1c(N2CCNC(C)C2)c(F)cc2c(=O)c(C(=O)O)cn(C3CC3)c12", "note": "(stereo not drawn) [GATIFLOXACIN]", "values": [{"measurement": "MIC", "setting": "Escherichia coli [3]", "value": 0.016, "unit": "µg/mL"}, {"measurement": "MIC", "setting": "Escherichia coli [1]", "value": 0.016, "unit": "µg/mL"}, {"measurement": "MIC", "setting": "Escherichia coli [5]", "value": 0.002, "unit": "µg/mL"}, {"measurement": "MIC", "setting": "Escherichia coli [6]", "value": 0.004, "unit": "µg/mL"}, {"measurement": "MIC", "setting": "Escherichia coli [7]", "value": 0.004, "unit": "µg/mL"}, {"measurement": "Ratio", "setting": "Escherichia coli [8]", "value": 8}, {"measurement": "MIC", "setting": "Escherichia coli [2]", "value": 32, "unit": "µg/mL"}]}, {"smiles": "CN(C)c1ccc(C(=C2C=CC(=[N+](C)C)C=C2)c2ccc(N(C)C)cc2)cc1.[Cl-]", "note": "[GENTIAN VIOLET]", "values": [{"measurement": "MIC", "setting": "Escherichia coli [3]", "value": 2, "unit": "µg/mL"}, {"measurement": "MIC", "setting": "Escherichia coli [1]", "value": 2, "unit": "µg/mL"}, {"measurement": "MIC", "setting": "Escherichia coli [5]", "value": 2, "unit": "µg/mL"}, {"measurement": "MIC", "setting": "Escherichia coli [6]", "value": 2, "unit": "µg/mL"}, {"measurement": "MIC", "setting": "Escherichia coli [7]", "value": 2, "unit": "µg/mL"}, {"measurement": "Ratio", "setting": "Escherichia coli [8]", "value": 1}, {"measurement": "MIC", "setting": "Escherichia coli [2]", "value": 16, "unit": "µg/mL"}]}, {"smiles": "CC[n+]1c(-c2ccccc2)c2cc(N)ccc2c2ccc(N)cc21.[Br-]", "note": "[HOMIDIUM BROMIDE]", "values": [{"measurement": "MIC", "setting": "Escherichia coli [3]", "value": 8, "unit": "µg/mL"}, {"measurement": "MIC", "setting": "Escherichia coli [1]", "value": 8, "unit": "µg/mL"}, {"measurement": "MIC", "setting": "Escherichia coli [5]", "value": 4, "unit": "µg/mL"}, {"measurement": "MIC", "setting": "Escherichia coli [6]", "value": 4, "unit": "µg/mL"}, {"measurement": "MIC", "setting": "Escherichia coli [7]", "value": 4, "unit": "µg/mL"}, {"measurement": "Ratio", "setting": "Escherichia coli [8]", "value": 2}, {"measurement": "MIC", "setting": "Escherichia coli [2]", "value": "> 128", "unit": "µg/mL"}]}, {"smiles": "NC[C@H]1O[C@H](O[C@H]2[C@H](O)[C@@H](O[C@H]3O[C@H](CO)[C@@H](O)[C@H](N)[C@H]3O)[C@H](N)C[C@@H]2N)[C@H](O)[C@@H](O)[C@@H]1O", "note": "[KANAMYCIN]", "values": [{"measurement": "MIC", "setting": "Escherichia coli [3]", "value": 1, "unit": "µg/mL"}, {"measurement": "MIC", "setting": "Escherichia coli [1]", "value": "> 128", "unit": "µg/mL"}, {"measurement": "MIC", "setting": "Escherichia coli [5]", "value": 1, "unit": "µg/mL"}, {"measurement": "MIC", "setting": "Escherichia coli [6]", "value": 128, "unit": "µg/mL"}, {"measurement": "MIC", "setting": "Escherichia coli [7]", "value": 1, "unit": "µg/mL"}, {"measurement": "Ratio", "setting": "Escherichia coli [8]", "value": 1}, {"measurement": "MIC", "setting": "Escherichia coli [2]", "value": "> 128", "unit": "µg/mL"}]}]}
